In ChEMBL document CHEMBL4665719, “Development of SKI-349, a dual-targeted inhibitor of sphingosine kinase and microtubule polymerization” (Bioorg Med Chem Lett, 2020):
Blank lines part the entries; values can stand above or below the compound they belong to. Calls of active or inactive are those of the source. No cut-off for these calls is given here.

Columns and labels:
HL-60 = assay: Cytotoxicity against human HL-60 cells assessed as reduction in cell viability after 48 hrs by MTT assay; format: functional, cell-based; conditions: HL-60, 48 h
[1] = Cytotoxicity against human HL60/VCR cells assessed as reduction in cell viability after 48 hrs by MTT assay; format: functional, cell-based
Sphingosine kinase 1 = Sphingosine kinase 1 (Homo sapiens, UniProt Q9NYA1); assay: Inhibition of recombinant His6x-tagged human SphK1 expressed in HEK293 cells assessed as reduction in S1P formation using D-erythro-sphingosine as substrate by […]
Sequence of Sphingosine kinase 1 (Q9NYA1 whole entry): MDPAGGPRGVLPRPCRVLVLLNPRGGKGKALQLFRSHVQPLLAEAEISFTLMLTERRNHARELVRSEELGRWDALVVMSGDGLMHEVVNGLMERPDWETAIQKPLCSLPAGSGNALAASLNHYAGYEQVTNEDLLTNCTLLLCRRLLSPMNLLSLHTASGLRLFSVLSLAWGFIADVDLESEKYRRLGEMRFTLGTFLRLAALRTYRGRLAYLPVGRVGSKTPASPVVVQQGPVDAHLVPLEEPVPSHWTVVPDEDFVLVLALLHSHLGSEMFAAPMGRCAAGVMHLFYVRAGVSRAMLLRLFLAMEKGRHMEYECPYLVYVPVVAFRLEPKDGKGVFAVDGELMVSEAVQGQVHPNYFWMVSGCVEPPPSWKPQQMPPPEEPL

[2] = target: T1, Sphingosine kinase 1/2 (Homo sapiens) (UniProt Q9NRA0+Q9NYA1); assay: Inhibition of SPHK1/SPHK2 in human HL-60 cells assessed as sphingosine level assessed per 10^6 cells at 5 uM after 24 hrs by LC-ESI/MS analysis (reference value: 18.3 +/- 3.5 pmol); format: cell-based
T1 sequence (Q9NRA0 whole entry, looked up): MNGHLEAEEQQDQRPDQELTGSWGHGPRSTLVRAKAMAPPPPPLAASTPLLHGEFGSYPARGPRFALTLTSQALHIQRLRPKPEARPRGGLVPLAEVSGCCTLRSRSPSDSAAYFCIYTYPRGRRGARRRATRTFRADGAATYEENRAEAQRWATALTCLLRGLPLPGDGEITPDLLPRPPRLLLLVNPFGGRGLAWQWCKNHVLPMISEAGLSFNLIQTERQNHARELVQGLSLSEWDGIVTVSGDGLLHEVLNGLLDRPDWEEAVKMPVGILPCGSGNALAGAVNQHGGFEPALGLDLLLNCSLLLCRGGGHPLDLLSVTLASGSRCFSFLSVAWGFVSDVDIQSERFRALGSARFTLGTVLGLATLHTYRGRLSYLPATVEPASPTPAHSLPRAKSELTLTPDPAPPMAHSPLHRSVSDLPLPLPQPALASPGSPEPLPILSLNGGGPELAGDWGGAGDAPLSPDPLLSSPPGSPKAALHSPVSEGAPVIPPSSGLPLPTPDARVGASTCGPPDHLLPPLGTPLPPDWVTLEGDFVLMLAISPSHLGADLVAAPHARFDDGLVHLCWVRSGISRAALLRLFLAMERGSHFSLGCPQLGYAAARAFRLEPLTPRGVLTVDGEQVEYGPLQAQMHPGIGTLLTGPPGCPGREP
T1 sequence (Q9NYA1 whole entry, looked up): as the sequence (Q9NYA1 whole entry) above

[3] = target: T1, Sphingosine kinase 1/2 (Homo sapiens); assay: Inhibition of SPHK1/SPHK2 in human HL-60 cells assessed as sphingosine-1-phosphate level assessed per 10^6 cells at 5 uM after 24 hrs by LC-ESI/MS analysis (reference value: 3.1 +/- 0.3 pmol); format: cell-based
[4] = target: T1, Sphingosine kinase 1/2 (Homo sapiens); assay: Inhibition of SPHK1/SPHK2 in human HL-60 cells assessed as C16:0 ceramide level assessed per 10^6 cells at 5 uM after 24 hrs by LC-ESI/MS analysis (reference value: 33.5 +/- 4.1 pmol); format: cell-based
[5] = target: T1, Sphingosine kinase 1/2 (Homo sapiens); assay: Inhibition of SPHK1/SPHK2 in human HL-60 cells assessed as C18:0 ceramide level assessed per 10^6 cells at 5 uM after 24 hrs by LC-ESI/MS analysis (reference value: 1.6 +/- 0.2 pmol); format: cell-based
[6] = target: Cyclin-dependent kinase 1 (Homo sapiens) (UniProt P06493); assay: Activation of CDK1 in human HL60/VCR cells assessed as induction of Bcl2 phosphorylation at Ser70 residue at 5 uM after 24 hrs in presence of Ro-3306 by Western blot analysis; format: cell-based
Sequence of Cyclin-dependent kinase 1 (Homo sapiens) (P06493 whole entry, looked up): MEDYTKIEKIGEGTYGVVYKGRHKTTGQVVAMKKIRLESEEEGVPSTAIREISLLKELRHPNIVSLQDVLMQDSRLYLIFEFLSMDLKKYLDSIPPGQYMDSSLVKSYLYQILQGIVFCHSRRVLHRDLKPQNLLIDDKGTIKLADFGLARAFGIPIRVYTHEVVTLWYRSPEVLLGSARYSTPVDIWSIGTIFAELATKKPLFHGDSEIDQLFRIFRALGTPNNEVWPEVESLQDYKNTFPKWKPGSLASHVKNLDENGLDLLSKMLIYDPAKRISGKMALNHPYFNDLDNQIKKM

[7] = target: Cyclin-dependent kinase 1 (Homo sapiens) (UniProt P06493); assay: Activation of CDK1 in human HL60/VCR cells assessed as activation of caspase 7 at 5 uM after 24 hrs in presence of Ro-3306 by Western blot analysis; format: cell-based
[8] = target: Cyclin-dependent kinase 1 (Homo sapiens) (UniProt P06493); assay: Activation of CDK1 in human HL-60 cells assessed as induction of Bcl2 phosphorylation at Ser70 residue at 5 uM after 24 hrs in presence of Ro-3306 by Western blot analysis; format: cell-based
[9] = target: Cyclin-dependent kinase 1 (Homo sapiens) (UniProt P06493); assay: Activation of CDK1 in human HL-60 cells assessed as activation of caspase 7 at 5 uM after 24 hrs in presence of Ro-3306 by Western blot analysis; format: cell-based
Tubulin (Homo sapiens) [10] = target: T2, Tubulin (Homo sapiens) (UniProt P68371+Q9H4B7+P0DPH7+P68366+Q13509+Q71U36+P04350+Q3ZCM7+P07437+P68363+Q9BQE3+Q6PEY2+Q13885+Q9BVA1+Q9BUF5); assay: Inhibition of tubulin polymerization in human MOLM-13 cells assessed as disruption of microtubule network at 100 nM after 18 hrs by FITC-staining based flow cytometry analysis; format: cell-based
[11] = target: T1, Sphingosine kinase 1/2 (Homo sapiens); assay: Inhibition of SPHK1/SPHK2 in human HL-60 cells assessed as induction of apoptosis by measuring spindle assembly checkpoint arrest at 20 nM after 16 hrs by Western blot analysis; format: cell-based
[12] = target: T1, Sphingosine kinase 1/2 (Homo sapiens); assay: Inhibition of SPHK1/SPHK2 in human HL-60 cells assessed as induction of apoptosis by measuring spindle assembly checkpoint arrest at 3 nM after 16 hrs by Western blot analysis; format: cell-based
Tubulin (Homo sapiens) [13] = target: T2, Tubulin (Homo sapiens); assay: Inhibition of tubulin polymerization in human MOLM-13 cells assessed as disruption of microtubule network at 200 nM after 18 hrs by FITC-staining based flow cytometry analysis; format: cell-based

Compound: CC[C@@H]1C(=O)N(C)c2cnc(Nc3ccc(C(=O)N[C@H]4CC[C@H](N5CCN(CC6CC6)CC5)CC4)cc3OC)nc2N1C(C)C
Activity [11]: Active

Compound: Cc1ccc(C(=O)N(CCCN)[C@@H](c2nc3cc(Cl)ccc3c(=O)n2Cc2ccccc2)C(C)C)cc1
Activity [12]: Active

Compound: CC[C@]1(O)C[C@H]2CN(CCc3c([nH]c4ccccc34)[C@@](C(=O)OC)(c3cc4c(cc3OC)N(C=O)[C@H]3[C@@](O)(C(=O)OC)[C@H](OC(C)=O)[C@]5(CC)C=CCN6CC[C@]43[C@@H]65)C2)C1
inhibition (Tubulin (Homo sapiens) [13]): Active

The next lines start with results.

IC50 (Sphingosine kinase 1): 3000 nM
Activity [2]: 28.7 pmol
Activity [3]: 3.2 pmol
Activity [4]: 84 pmol
Activity [5]: 4.8 pmol
Activity [6]: inactive
Activity [7]: inactive
Activity [8]: inactive
Activity [9]: inactive
Compound: COc1ccc(-c2cc(C(=O)N/N=C(\C)c3ccc(OC)c(OC)c3)[nH]n2)cc1
IC50 (HL-60): 470 nM
IC50 [1]: 1100 nM

inhibition (Tubulin (Homo sapiens) [10]): Active
Compound: CC(=O)O[C@H]1C(=O)[C@@]2(C)[C@H]([C@H](OC(=O)c3ccccc3)[C@]3(O)C[C@H](OC(=O)[C@H](O)[C@@H](NC(=O)c4ccccc4)c4ccccc4)C(C)=C1C3(C)C)[C@]1(OC(C)=O)CO[C@@H]1C[C@@H]2O
